From patent publication US20090247559A1 (Exelixis, Inc., priority 2007, published 2009)

Tests used:
[1] = target: PIM (PIM-1, PIM-2, and/or PIM-3); assay: PIM-1, PIM-2 and PIM-3 inhibition, biochemical chemiluminescence assays (Kinase Glo, IC50 determination); details: Table 1 activity class; PIM refers to PIM-1, PIM-2, and/or PIM-3; read-out: PIM IC50 (Activity B)
CK2 = CK2 (Homo sapiens, UniProt P68400); assay: CK2 inhibition, biochemical chemiluminescence holoenzyme assay (Kinase Glo, IC50 determination); details: Table 1 activity class; symbol given only if active; read-out: CK2 IC50 (Activity C)
Chain of CK2 (P68400 whole entry): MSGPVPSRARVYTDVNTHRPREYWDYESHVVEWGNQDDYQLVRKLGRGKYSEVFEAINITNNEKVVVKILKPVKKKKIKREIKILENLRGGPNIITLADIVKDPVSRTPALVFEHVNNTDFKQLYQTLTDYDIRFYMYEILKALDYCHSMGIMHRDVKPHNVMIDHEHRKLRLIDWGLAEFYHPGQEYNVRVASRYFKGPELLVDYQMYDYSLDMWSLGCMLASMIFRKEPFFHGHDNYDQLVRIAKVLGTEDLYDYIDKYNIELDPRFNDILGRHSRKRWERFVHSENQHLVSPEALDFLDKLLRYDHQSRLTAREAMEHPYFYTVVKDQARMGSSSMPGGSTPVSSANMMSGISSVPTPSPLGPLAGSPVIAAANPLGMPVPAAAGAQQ
Chain of CK2 (P67870 whole entry partner): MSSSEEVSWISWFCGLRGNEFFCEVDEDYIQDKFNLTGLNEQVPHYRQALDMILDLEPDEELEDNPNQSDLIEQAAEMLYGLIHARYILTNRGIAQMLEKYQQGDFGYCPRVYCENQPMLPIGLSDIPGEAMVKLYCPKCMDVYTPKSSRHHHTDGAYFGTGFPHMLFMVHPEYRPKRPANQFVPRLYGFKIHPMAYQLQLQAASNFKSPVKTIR
Method in brief: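 Holoenzyme CK2 assay; compounds pre-incubated with substrate and enzyme, then reacted 150 min at 24-27° C. Remaining ATP measured as luminescence with Kinase Glo, and IC50 derived from the signal.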

IC50 [1]	IC50 (CK2)	SMILES
< 10 µM	< 10 µM	O=C(C1CCOC1)N1CCC(c2nc3c(oc4ccc(Br)cc43)c(=O)[nH]2)CC1 (centres unmarked) [Compound 233, 8-bromo-2-[1-(tetrahydrofuran-3-ylcarbonyl)piperidin-4-yl][1]benzofuro[3,2-d]pyrimidin-4(3H)-one]
< 10 µM	< 10 µM	O=C(c1ccccc1)N1CCC(c2nc3c(oc4ccc(Br)cc43)c(=O)[nH]2)CC1 [Compound 234, 8-bromo-2-[1-(phenylcarbonyl)piperidin-4-yl][1]benzofuro[3,2-d]pyrimidin-4(3H)-one]
< 10 µM	< 10 µM	O=C(c1ccncc1)N1CCC(c2nc3c(oc4ccc(Br)cc43)c(=O)[nH]2)CC1 [Compound 236, 8-bromo-2-[1-(pyridin-4-ylcarbonyl)piperidin-4-yl][1]benzofuro[3,2-d]pyrimidin-4(3H)-one]
< 10 µM	< 10 µM	O=C(Cc1ccccc1)N1CCC(c2nc3c(oc4ccc(Br)cc43)c(=O)[nH]2)CC1 [Compound 237, 8-bromo-2-[1-(phenylacetyl)piperidin-4-yl][1]benzofuro[3,2-d]pyrimidin-4(3H)-one]
< 10 µM	< 10 µM	O=c1[nH]c(CN2CCC(c3ccccc3)CC2)nc2c1oc1ccc(Br)cc12 [Compound 238, 8-bromo-2-[(4-phenylpiperidin-1-yl)methyl][1]benzofuro[3,2-d]pyrimidin-4(3H)-one]
< 10 µM	< 10 µM	O=c1[nH]c(CN2CCN(c3cccnc3)CC2)nc2c1oc1ccc(Br)cc12 [Compound 240, 8-bromo-2-[(4-pyridin-3-ylpiperazin-1-yl)methyl][1]benzofuro[3,2-d]pyrimidin-4(3H)-one]
< 10 µM	< 10 µM	O=c1[nH]c(CNC2CCc3ccccc32)nc2c1oc1ccc(Br)cc12 (centres unmarked) [Compound 241, 8-bromo-2-[(2,3-dihydro-1H-inden-1-ylamino)methyl][1]benzofuro[3,2-d]pyrimidin-4(3H)-one]
< 10 µM	< 10 µM	CN1CCC(Cc2nc3c(oc4ccc(Br)cc43)c(=O)[nH]2)CC1 [Compound 244, 8-bromo-2-[(1-methylpiperidin-4-yl)methyl][1]benzofuro[3,2-d]pyrimidin-4(3H)-one]
< 10 µM	< 10 µM	CCN(CC)CC(=O)N1CCN(c2nc3c(oc4ccc(Br)cc43)c(=O)[nH]2)CC1 [Compound 245, 8-bromo-2-[4-(N,N-diethylglycyl)piperazin-1-yl][1]benzofuro[3,2-d]pyrimidin-4(3H)-one]
< 10 µM	< 10 µM	CN(C)CCCN1CCN(c2nc3c(oc4ccc(Br)cc43)c(=O)[nH]2)CC1 [Compound 246, 8-bromo-2-{4-[3-(dimethylamino)propyl]piperazin-1-yl}[1]benzofuro[3,2-d]pyrimidin-4(3H)-one]
< 10 µM	< 10 µM	O=c1[nH]c(CN2CCN(CCO)CC2)nc2c1oc1ccc(Br)cc12 [Compound 247, 8-bromo-2-{[4-(2-hydroxyethyl)piperazin-1-yl]methyl}[1]benzofuro[3,2-d]pyrimidin-4(3H)-one]
< 10 µM	< 10 µM	O=C(Nc1ccc(-c2nc3c(oc4ccc(Br)cc43)c(=O)[nH]2)c(Cl)c1)C1CCCCC1 [Compound 250, N-[4-(8-bromo-4-oxo-3,4-dihydro[1]benzofuro[3,2-d]pyrimidin-2-yl)-3-chlorophenyl]cyclohexanecarboxamide]
< 10 µM	< 10 µM	O=c1[nH]c(CN2CCC(Cc3ccccc3)CC2)nc2c1oc1ccc(Br)cc12 [Compound 253, 8-bromo-2-{[4-(phenylmethyl)piperidin-1-yl]methyl}[1]benzofuro[3,2-d]pyrimidin-4(3H)-one]
< 10 µM	< 10 µM	O=c1[nH]c(CN2CCC(N3CCOCC3)CC2)nc2c1oc1ccc(Br)cc12 [Compound 257, 8-bromo-2-[(4-morpholin-4-ylpiperidin-1-yl)methyl][1]benzofuro[3,2-d]pyrimidin-4(3H)-one]
< 10 µM	< 10 µM	O=c1[nH]c(CNCc2ccco2)nc2c1oc1ccc(Br)cc12 [Compound 258, 8-bromo-2-{[(furan-2-ylmethyl)amino]methyl}[1]benzofuro[3,2-d]pyrimidin-4(3H)-one]
< 10 µM	< 10 µM	O=c1[nH]c(CN2CCN(c3ccccc3)CC2)nc2c1oc1ccc(Br)cc12 [Compound 260, 8-bromo-2-[(4-phenylpiperazin-1-yl)methyl][1]benzofuro[3,2-d]pyrimidin-4(3H)-one]
< 10 µM	< 10 µM	O=c1[nH]c(CNC2Cc3ccccc3C2)nc2c1oc1ccc(Br)cc12 [Compound 263, 8-bromo-2-[(2,3-dihydro-1H-inden-2-ylamino)methyl][1]benzofuro[3,2-d]pyrimidin-4(3H)-one]
< 10 µM	< 10 µM	O=C(C1CCN(Cc2nc3c(oc4ccc(Br)cc43)c(=O)[nH]2)C1)N1CCOCC1 (centres unmarked) [Compound 267, 8-bromo-2-{[3-(morpholin-4-ylcarbonyl)pyrrolidin-1-yl]methyl}[1]benzofuro[3,2-d]pyrimidin-4(3H)-one]
< 10 µM	< 10 µM	O=C(NCc1ccc(Cl)cc1)C1CCN(Cc2nc3c(oc4ccc(Br)cc43)c(=O)[nH]2)C1 (centres unmarked) [Compound 271, 1-[(8-bromo-4-oxo-3,4-dihydro[1]benzofuro[3,2-d]pyrimidin-2-yl)methyl]-N-[(4-chlorophenyl)methyl]pyrrolidine-3-carboxamide]
< 10 µM	< 10 µM	O=C(C1CCN(Cc2nc3c(oc4ccc(Br)cc43)c(=O)[nH]2)C1)N1CCC(O)CC1 (centres unmarked) [Compound 272, 8-bromo-2-({3-[(4-hydroxypiperidin-1-yl)carbonyl]pyrrolidin-1-yl}methyl)[1]benzofuro[3,2-d]pyrimidin-4(3H)-one]

Second part, the compound before the results:

SMILES	IC50 [1]	IC50 (CK2)
O=c1[nH]c(CNCc2ccccc2)nc2c1oc1ccc(Br)cc12 [Compound 239, 8-bromo-2-{[(phenylmethyl)amino]methyl}[1]benzofuro[3,2-d]pyrimidin-4(3H)-one]	< 10 µM	< 10 µM
Nc1ncc(Cl)c(-c2nc3c(oc4ccc(Br)cc43)c(=O)[nH]2)n1 [Compound 243, 2-(2-amino-5-chloropyrimidin-4-yl)-8-bromo[1]benzofuro[3,2-d]pyrimidin-4(3H)-one]	< 10 µM	< 10 µM
O=C(Nc1ccc(-c2nc3c(oc4ccc(Br)cc43)c(=O)[nH]2)c(Cl)c1)c1ccccc1 [Compound 249, N-[4-(8-bromo-4-oxo-3,4-dihydro[1]benzofuro[3,2-d]pyrimidin-2-yl)-3-chlorophenyl]benzamide]	< 10 µM	< 10 µM
O=C(Nc1ccc(-c2nc3c(oc4ccc(Br)cc43)c(=O)[nH]2)c(Cl)c1)C1CCCC1 [Compound 251, N-[4-(8-bromo-4-oxo-3,4-dihydro[1]benzofuro[3,2-d]pyrimidin-2-yl)-3-chlorophenyl]cyclopentanecarboxamide]	< 10 µM	< 10 µM
O=c1[nH]c(CNCc2ccccn2)nc2c1oc1ccc(Br)cc12 [Compound 254, 8-bromo-2-{[(pyridin-2-ylmethyl)amino]methyl}[1]benzofuro[3,2-d]pyrimidin-4(3H)-one]	< 10 µM	< 10 µM
COc1cccc(CNCc2nc3c(oc4ccc(Br)cc43)c(=O)[nH]2)c1 [Compound 255, 8-bromo-2-[({[3-(methyloxy)phenyl]methyl}amino)methyl][1]benzofuro[3,2-d]pyrimidin-4(3H)-one]	< 10 µM	< 10 µM
O=c1[nH]c(CNCc2cccc(Cl)c2)nc2c1oc1ccc(Br)cc12 [Compound 256, 8-bromo-2-({[(3-chlorophenyl)methyl]amino}methyl)[1]benzofuro[3,2-d]pyrimidin-4(3H)-one]	< 10 µM	< 10 µM
COc1ccc(CNCc2nc3c(oc4ccc(Br)cc43)c(=O)[nH]2)cc1 [Compound 261, 8-bromo-2-[({[4-(methyloxy)phenyl]methyl}amino)methyl][1]benzofuro[3,2-d]pyrimidin-4(3H)-one]	< 10 µM	< 10 µM
COc1ccccc1CNCc1nc2c(oc3ccc(Br)cc32)c(=O)[nH]1 [Compound 268, 8-bromo-2-[({[2-(methyloxy)phenyl]methyl}amino)methyl][1]benzofuro[3,2-d]pyrimidin-4(3H)-one]	< 10 µM	< 10 µM
Cc1cc(C(=O)Nc2ccc(-c3nc4c(oc5ccc(Br)cc54)c(=O)[nH]3)c(Cl)c2)cc(Cl)n1 [Compound 274, N-[4-(8-bromo-4-oxo-3,4-dihydro[1]benzofuro[3,2-d]pyrimidin-2-yl)-3-chlorophenyl]-2-chloro-6-methylpyridine-4-carboxamide]	< 10 µM	< 10 µM
O=C(Nc1ccc(-c2nc3c(oc4ccc(Br)cc43)c(=O)[nH]2)c(Cl)c1)c1ccc(Cl)cc1 [Compound 279, N-[4-(8-bromo-4-oxo-3,4-dihydro[1]benzofuro[3,2-d]pyrimidin-2-yl)-3-chlorophenyl]-4-chlorobenzamide]	< 10 µM	< 10 µM
O=C(Nc1ccc(-c2nc3c(oc4ccc(Br)cc43)c(=O)[nH]2)c(Cl)c1)c1cccc(Cl)c1 [Compound 280, N-[4-(8-bromo-4-oxo-3,4-dihydro[1]benzofuro[3,2-d]pyrimidin-2-yl)-3-chlorophenyl]-3-chlorobenzamide]	< 10 µM	< 10 µM
COc1cccc(C(=O)Nc2ccc(-c3nc4c(oc5ccc(Br)cc54)c(=O)[nH]3)c(Cl)c2)c1 [Compound 281, N-[4-(8-bromo-4-oxo-3,4-dihydro[1]benzofuro[3,2-d]pyrimidin-2-yl)-3-chlorophenyl]-3-(methyloxy)benzamide]	< 10 µM	< 10 µM
C[C@H](c1ccccc1)N1C[C@H](c2nc3c(oc4ccc(Br)cc43)c(=O)[nH]2)CC1=O [Compound 282, 8-bromo-2-{(3R)-5-oxo-1-[(1R)-1-phenylethyl]pyrrolidin-3-yl}[1]benzofuro[3,2-d]pyrimidin-4(3H)-one]	< 10 µM	< 10 µM
